Experimental data: ChEMBL document CHEMBL1201862, “PubChem BioAssay data set” (2004)
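Briefly, cells in 96-well plates were exposed to five compound concentrations for 48 h, and endpoints were estimated by linear interpolation. GI50: concentration for 50% inhibition of growth.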 Calls of active or inactive are those of the source. No stated cut-off is given here; in the data, active = GI50 up to about 1.1 µM and inactive = higher.

Columns and labels:
Assay in all cases: inhibition of tumour cell growth, NCI panel, 48 h
IGROV-1 = test system: IGROV-1
SR = test system: SR
NCI-H460 = test system: NCI-H460
SNB-75 = test system: SNB-75
HCT-15 = test system: HCT-15
U-251 = test system: U-251
SNB-19 = test system: SNB-19
MDA-MB-435 = test system: MDA-MB-435
OVCAR-5 = test system: OVCAR-5
NCI-H23 = test system: NCI-H23
A498 = test system: A498
SW-620 = test system: SW-620
CCRF-CEM = test system: CCRF-CEM
UACC-257 = test system: UACC-257
SN12C = test system: SN12C
SK-MEL-5 = test system: SK-MEL-5
NCI-H522 = test system: NCI-H522
OVCAR-8 = test system: OVCAR-8
HOP-62 = test system: HOP-62
HCC 2998 = test system: HCC 2998

| SMILES | GI50 (IGROV-1) | GI50 (SR) | GI50 (NCI-H460) | GI50 (SNB-75) | GI50 (HCT-15) [µM] | GI50 (U-251) | GI50 (SNB-19) | GI50 (MDA-MB-435) | GI50 (OVCAR-5) | GI50 (NCI-H23) | GI50 (A498) | GI50 (SW-620) | GI50 (CCRF-CEM) | GI50 (UACC-257) | GI50 (SN12C) | GI50 (SK-MEL-5) | GI50 (NCI-H522) | GI50 (OVCAR-8) | GI50 (HOP-62) | GI50 (HCC 2998) |
| --- | --- | --- | --- | --- | --- | --- | --- | --- | --- | --- | --- | --- | --- | --- | --- | --- | --- | --- | --- | --- |
| CC(C(=O)ON1C(=O)CCC1=O)c1ccc(C(=O)c2ccccc2)s1 (stereo not given) | > 100 µM (inactive) | > 100 µM (inactive) | > 100 µM (inactive) | > 100 µM (inactive) | > 100 | > 100 µM (inactive) | > 100 µM (inactive) | > 100 µM (inactive) | > 100 µM (inactive) | > 100 µM (inactive) | > 100 µM (inactive) | > 100 µM (inactive) | > 100 µM (inactive) | > 100 µM (inactive) | > 100 µM (inactive) | > 100 µM (inactive) | > 100 µM (inactive) | > 100 µM (inactive) | > 100 µM (inactive) | > 100 µM (inactive) |
| CC1(C)OCC2OC(n3cnc4c(N)nc(Cl)nc43)C(OS(C)(=O)=O)C2O1 (stereo not given) | > 100 µM (inactive) | > 100 µM (inactive) | > 100 µM (inactive) | > 100 µM (inactive) | > 100 | > 100 µM (inactive) | > 100 µM (inactive) | > 100 µM (inactive) | > 100 µM (inactive) | > 100 µM (inactive) | > 100 µM (inactive) | > 100 µM (inactive) | > 100 µM (inactive) | > 100 µM (inactive) | > 100 µM (inactive) | > 100 µM (inactive) | > 100 µM (inactive) | > 100 µM (inactive) | > 100 µM (inactive) | > 100 µM (inactive) |
| CC[n+]1c(/C=C/c2ccc(N(CCCl)CCCl)cc2)ccc2cc(NC(=O)/C=C/c3ccccc3)ccc21 | 0.31 µM (active) | 0.189 µM (active) | 0.245 µM (active) | 0.131 µM (active) | 14.2 | 0.132 µM (active) | 0.393 µM (active) | 0.288 µM (active) | 0.748 µM (active) | 0.482 µM (active) | 10.3 µM (inactive) | 0.208 µM (active) | 0.118 µM (active) | 0.787 µM (active) | 0.261 µM (active) | 0.174 µM (active) | 0.218 µM (active) | 0.406 µM (active) | 0.318 µM (active) | 0.39 µM (active) |
| CCOC(=O)c1sc2[n+](c1C)C(=O)/C(=C/c1ccccc1Cl)S2 | 1.84 µM (inactive) | 0.394 µM (active) | 0.65 µM (active) | 0.425 µM (active) | 0.834 | 0.583 µM (active) | 0.579 µM (active) | 0.281 µM (active) | 14.7 µM (inactive) | 1.63 µM (inactive) | 6.92 µM (inactive) | 0.883 µM (active) | 15.3 µM (inactive) | 4.83 µM (inactive) | 14.3 µM (inactive) | 0.421 µM (active) | 0.532 µM (active) | 1.01 µM (active) | 1.61 µM (inactive) | 1.7 µM (inactive) |
